Experimental findings from ChEMBL document CHEMBL1201862, “PubChem BioAssay data set” (2004) are described below.

In general, AC50 refers to the midpoint of the concentration-response curve, whichever way the signal moves. Broadly, the IC50 is the concentration that gives 50% inhibition. The term EC50 denotes the concentration needed to bring the measured effect to its halfway point. What is called Ki is the equilibrium dissociation constant of an inhibitor or competing ligand from its target.

The subject of one assay is HeLa. In words: viability loss in HeLa cells – cell-based, ATP luminescence, cherry-pick samples, cytotoxicity control, dose response (AID 687004). In kind it is functional. The note with it: Homo sapiens.
The subject of the next assay is HEK293. In words: viability loss in HEK293T cells – cell-based, ATP luminescence, cherry-pick samples, cytotoxicity control, dose response (AID 687005).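 Note: cells exposed to compound for 48 hours.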 Particulars: Homo sapiens. In kind it is functional.
A short description of assay [1]: HEK293 Cytotoxicity Assay Measured in Cell-Based System Using Plate Reader - 7071-01_Inhibitor_Dose_CherryPick_Activity_Set2. In kind it is functional.
The target of assay [2] is Disintegrin and metalloproteinase domain-containing protein 17 (Homo sapiens, UniProt P78536). In words: exosite inhibitors of ADAM17, dose response, biochemical (AID 743260).
Chain of Disintegrin and metalloproteinase domain-containing protein 17 (P78536 whole entry, the tested form may be a part): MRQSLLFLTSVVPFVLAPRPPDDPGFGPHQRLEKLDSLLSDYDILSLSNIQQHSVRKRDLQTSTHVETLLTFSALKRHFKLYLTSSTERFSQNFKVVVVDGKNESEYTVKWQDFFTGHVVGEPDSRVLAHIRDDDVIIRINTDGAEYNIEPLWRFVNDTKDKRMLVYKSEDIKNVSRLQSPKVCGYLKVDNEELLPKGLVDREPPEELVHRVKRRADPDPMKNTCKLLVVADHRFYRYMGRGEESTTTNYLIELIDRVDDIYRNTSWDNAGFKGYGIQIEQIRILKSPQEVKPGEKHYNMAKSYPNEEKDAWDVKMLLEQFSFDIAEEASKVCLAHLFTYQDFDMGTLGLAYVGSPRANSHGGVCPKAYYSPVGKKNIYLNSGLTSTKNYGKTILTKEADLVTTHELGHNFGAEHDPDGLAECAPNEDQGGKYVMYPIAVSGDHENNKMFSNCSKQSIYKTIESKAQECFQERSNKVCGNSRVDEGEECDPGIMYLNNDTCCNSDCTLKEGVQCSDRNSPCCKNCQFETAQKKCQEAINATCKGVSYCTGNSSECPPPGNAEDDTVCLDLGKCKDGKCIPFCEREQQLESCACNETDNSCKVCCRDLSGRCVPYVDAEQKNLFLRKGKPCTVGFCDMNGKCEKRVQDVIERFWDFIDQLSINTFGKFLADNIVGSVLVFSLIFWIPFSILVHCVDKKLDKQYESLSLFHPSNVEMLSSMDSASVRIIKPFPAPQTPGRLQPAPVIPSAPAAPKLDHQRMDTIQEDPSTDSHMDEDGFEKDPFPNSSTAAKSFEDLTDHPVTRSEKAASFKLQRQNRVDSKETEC
The nature of assay [3]: inhibition of ADAM10 peptide cleavage – biochemical, FRET peptide substrate, recombinant human ADAM10, selectivity assay for ADAM17 exosite inhibitor project, dose response (AID 743259).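 Note: ADAM10 enzyme cleaving a FRET peptide substrate.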
Assay [4] addresses T1, Oxysterols receptor LXR-beta (Homo sapiens, UniProt P55055).
T1 sequence (P55055 whole entry): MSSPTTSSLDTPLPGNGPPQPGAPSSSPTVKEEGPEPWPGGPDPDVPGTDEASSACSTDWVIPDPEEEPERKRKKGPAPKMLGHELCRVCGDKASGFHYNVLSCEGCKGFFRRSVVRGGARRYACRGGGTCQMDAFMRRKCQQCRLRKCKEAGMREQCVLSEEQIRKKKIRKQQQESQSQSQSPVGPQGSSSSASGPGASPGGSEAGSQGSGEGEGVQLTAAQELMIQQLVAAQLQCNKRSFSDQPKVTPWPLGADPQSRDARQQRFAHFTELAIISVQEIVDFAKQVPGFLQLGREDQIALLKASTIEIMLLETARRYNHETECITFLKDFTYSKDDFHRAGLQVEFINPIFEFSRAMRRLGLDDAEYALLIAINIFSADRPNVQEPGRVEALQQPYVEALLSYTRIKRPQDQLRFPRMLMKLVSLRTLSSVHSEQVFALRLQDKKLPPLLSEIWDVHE
In kind it is functional, cell-based.

Assay [5] can be described thus: Late stage counterscreen for inhibitors of Trypanosoma brucei methionyl tRNA synthetase (MetRS): Luminescence-based cell-based high throughput dose response assay to identify compounds that are cytotoxic to Jurkat human T lymphocyte cells. In kind it is functional.
In the next assay the target is fMet-Leu-Phe receptor (Homo sapiens, UniProt P21462). Description: formyl peptide receptor binders – dose response (AID 519). In kind it is functional.
Chain of fMet-Leu-Phe receptor (P21462 whole entry): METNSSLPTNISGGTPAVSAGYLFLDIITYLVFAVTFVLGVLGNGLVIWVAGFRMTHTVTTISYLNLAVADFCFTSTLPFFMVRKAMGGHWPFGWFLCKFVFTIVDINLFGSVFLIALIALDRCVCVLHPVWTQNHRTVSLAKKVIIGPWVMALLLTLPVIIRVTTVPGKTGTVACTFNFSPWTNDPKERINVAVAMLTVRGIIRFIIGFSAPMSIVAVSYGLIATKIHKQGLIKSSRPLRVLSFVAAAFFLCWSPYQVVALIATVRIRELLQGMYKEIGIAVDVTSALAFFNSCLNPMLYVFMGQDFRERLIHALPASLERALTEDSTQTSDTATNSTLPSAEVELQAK
The nature of assay [6]: Late stage assay provider results from the probe development effort to identify selective inhibitors of heat shock protein 90 (HSP90): Absorbance-based cell proliferation assay in SKBR3 cells. It counts as functional. The note with it: SK-BR-3.
Assay [7] can be described thus: Late stage assay provider results from the probe development effort to identify selective inhibitors of heat shock protein 90 (HSP90): Absorbance-based cell proliferation assay in MCF7 cells. In kind it is functional.
The target of assay [8] is T2, Methionyl-tRNA synthetase, putative (Trypanosoma brucei brucei, UniProt Q38C91).
T2 sequence (Q38C91 whole entry): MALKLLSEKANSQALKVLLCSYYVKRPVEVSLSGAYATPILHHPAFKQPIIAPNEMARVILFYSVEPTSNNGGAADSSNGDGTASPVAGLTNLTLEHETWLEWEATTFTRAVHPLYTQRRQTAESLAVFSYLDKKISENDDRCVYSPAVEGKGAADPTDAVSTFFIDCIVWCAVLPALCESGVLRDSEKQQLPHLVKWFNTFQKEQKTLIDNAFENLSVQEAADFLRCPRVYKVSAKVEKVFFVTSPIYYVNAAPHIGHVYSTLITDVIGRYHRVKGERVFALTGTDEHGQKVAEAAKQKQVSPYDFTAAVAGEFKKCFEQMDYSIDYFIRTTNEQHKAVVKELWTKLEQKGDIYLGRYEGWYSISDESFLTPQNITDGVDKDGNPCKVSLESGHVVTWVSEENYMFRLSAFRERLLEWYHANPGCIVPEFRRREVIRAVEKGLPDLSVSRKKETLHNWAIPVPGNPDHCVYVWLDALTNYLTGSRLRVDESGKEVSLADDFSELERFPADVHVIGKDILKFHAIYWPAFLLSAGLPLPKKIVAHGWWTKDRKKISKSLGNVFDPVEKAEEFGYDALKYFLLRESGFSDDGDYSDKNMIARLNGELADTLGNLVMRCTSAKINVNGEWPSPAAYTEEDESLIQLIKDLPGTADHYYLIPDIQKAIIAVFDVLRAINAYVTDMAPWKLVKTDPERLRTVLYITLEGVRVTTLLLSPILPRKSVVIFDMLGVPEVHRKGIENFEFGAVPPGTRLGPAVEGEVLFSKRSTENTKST
It counts as functional, Trypanosoma brucei brucei strain 927/4 GUTat10.1.

A short description of assay [9]: Counterscreen for inhibitors of Trypanosoma brucei methionyl tRNA synthetase (MetRS): Luminescence-based cell-based high throughput dose response assay to identify compounds that are cytotoxic to Jurkat human T lymphocyte cells. In kind it is functional.
The target in assay [10] is T2, Methionyl-tRNA synthetase, putative. In kind it is functional, Trypanosoma brucei brucei strain 927/4 GUTat10.1. The source holds these as a separate data set.
The target of assay [11] is T1, Oxysterols receptor LXR-beta. In kind it is functional, cell-based. The source holds these as a separate data set.
In assay [12] the target is NAD-dependent protein deacylase sirtuin-5, mitochondrial (Homo sapiens, UniProt Q9NXA8). Description: sirtuin-5 deacylation blockers, concentration series – biochemical, fluorescence imaging, cherry-pick, set 5, dose response (AID 720591).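 Note: desuccinylation of succinyl peptide AMC substrate read as fluorescence after trypsin release; potency of inhibitors that lower fluorescence and may act on trypsin instead.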
Chain of NAD-dependent protein deacylase sirtuin-5, mitochondrial (Q9NXA8 whole entry): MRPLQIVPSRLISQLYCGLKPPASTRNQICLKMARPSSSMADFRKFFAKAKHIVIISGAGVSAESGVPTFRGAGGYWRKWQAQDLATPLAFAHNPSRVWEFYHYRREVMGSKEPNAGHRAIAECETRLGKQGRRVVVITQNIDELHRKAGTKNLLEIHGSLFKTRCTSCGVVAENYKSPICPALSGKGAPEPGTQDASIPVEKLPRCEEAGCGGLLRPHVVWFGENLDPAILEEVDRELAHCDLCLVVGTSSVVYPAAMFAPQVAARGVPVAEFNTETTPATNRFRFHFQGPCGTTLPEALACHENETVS
The target of assay [13] is Peroxisome proliferator-activated receptor gamma/Nuclear receptor coactivator 2 (Homo sapiens, UniProt P37231). In kind it is functional.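 Note: agonist potency for raising coactivator recruitment to the receptor.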
Assay [14] deals with Peroxisome proliferator-activated receptor gamma/Nuclear receptor coactivator 1 (Homo sapiens, UniProt P37231). In kind it is functional.
Assay [15] deals with Peroxisome proliferator-activated receptor gamma/Nuclear receptor coactivator 3 (Homo sapiens, UniProt P37231). In kind it is functional.
Chain of Peroxisome proliferator-activated receptor gamma/Nuclear receptor coactivator 3 (P37231 whole entry): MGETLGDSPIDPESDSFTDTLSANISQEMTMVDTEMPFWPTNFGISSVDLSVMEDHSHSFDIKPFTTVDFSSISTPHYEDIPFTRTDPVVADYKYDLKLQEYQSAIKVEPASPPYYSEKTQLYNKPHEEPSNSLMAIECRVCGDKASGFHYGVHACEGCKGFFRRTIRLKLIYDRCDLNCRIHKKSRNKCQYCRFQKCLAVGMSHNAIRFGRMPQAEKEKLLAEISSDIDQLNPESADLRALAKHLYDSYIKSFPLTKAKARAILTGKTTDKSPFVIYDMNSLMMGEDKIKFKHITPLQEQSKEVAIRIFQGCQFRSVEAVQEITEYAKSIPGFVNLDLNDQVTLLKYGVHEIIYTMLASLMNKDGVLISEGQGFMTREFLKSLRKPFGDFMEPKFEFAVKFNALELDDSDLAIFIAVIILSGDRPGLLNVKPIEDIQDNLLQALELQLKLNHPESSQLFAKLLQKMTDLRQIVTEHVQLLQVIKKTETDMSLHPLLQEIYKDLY
Chain of Peroxisome proliferator-activated receptor gamma/Nuclear receptor coactivator 3 (Q9Y6Q9 whole entry, further chain): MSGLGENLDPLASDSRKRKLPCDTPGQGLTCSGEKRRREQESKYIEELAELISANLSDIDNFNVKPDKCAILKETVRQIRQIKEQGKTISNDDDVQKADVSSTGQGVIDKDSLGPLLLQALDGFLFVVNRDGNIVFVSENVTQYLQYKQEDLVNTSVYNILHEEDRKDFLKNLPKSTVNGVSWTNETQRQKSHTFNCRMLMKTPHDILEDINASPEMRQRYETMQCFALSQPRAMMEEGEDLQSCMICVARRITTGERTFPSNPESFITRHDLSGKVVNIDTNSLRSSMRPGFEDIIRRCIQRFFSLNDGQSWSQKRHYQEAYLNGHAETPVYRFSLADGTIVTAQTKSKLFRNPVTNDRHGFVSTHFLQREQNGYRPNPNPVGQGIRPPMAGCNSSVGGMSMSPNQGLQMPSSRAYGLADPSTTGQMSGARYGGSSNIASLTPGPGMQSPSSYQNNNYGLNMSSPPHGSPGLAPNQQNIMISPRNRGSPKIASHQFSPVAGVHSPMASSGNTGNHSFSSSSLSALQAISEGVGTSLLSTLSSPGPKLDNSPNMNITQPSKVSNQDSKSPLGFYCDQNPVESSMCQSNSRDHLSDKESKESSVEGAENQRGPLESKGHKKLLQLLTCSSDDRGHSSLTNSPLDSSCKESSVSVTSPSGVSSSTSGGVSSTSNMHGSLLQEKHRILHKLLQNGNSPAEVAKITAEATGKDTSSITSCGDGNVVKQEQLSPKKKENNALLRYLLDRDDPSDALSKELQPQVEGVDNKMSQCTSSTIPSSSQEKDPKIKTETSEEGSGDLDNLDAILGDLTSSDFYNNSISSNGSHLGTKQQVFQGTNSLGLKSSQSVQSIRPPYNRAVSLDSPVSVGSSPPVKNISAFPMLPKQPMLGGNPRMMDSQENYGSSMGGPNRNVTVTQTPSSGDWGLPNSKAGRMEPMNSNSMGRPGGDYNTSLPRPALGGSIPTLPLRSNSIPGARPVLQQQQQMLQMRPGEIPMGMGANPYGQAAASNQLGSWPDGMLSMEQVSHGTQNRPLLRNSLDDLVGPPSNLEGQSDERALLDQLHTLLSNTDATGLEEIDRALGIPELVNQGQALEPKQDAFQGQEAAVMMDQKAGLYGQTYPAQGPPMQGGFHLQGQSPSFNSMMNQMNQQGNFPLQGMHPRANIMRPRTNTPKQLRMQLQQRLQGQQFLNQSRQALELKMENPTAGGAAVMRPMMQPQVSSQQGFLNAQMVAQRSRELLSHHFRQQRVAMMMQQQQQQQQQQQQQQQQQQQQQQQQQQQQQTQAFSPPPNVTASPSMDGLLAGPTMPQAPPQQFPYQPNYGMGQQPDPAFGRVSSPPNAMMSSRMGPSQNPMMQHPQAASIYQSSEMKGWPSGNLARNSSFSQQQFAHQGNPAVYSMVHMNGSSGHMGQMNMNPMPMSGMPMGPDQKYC
In the next assay the target is Cytochrome P450 2C19 (Homo sapiens, UniProt P33261). In words: Cytochrome panel assay with activity outcomes. Panel member name: p450-cyp2c19 Compounds with AC50 equal or less than 10 uM are considered active. It counts as functional. The note with it: read-out: AC50.
Chain of Cytochrome P450 2C19 (P33261 whole entry): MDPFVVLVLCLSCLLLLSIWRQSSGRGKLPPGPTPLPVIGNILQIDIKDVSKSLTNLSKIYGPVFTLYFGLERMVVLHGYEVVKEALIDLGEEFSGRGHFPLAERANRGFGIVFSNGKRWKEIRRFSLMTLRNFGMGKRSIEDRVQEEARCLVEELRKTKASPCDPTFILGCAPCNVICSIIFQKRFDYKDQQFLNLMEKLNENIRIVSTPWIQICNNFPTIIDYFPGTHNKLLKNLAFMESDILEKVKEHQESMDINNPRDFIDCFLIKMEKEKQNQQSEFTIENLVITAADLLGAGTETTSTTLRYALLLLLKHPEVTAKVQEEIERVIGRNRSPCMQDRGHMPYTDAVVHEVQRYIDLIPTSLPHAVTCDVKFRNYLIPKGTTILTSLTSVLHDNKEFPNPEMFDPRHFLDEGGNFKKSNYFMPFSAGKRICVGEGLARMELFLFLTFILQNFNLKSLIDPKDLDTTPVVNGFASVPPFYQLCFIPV
Assay [16] is described as follows: A549 cell cytotoxicity, dose response, cytotoxicity control, plate reader, cherry-pick, antagonist series (AID 743412). It counts as functional, cell-based.
Assay [17] is described as follows: toxicity toward HepG2 liver cells – cell-based, plate reader, cherry-pick, antagonist series, cytotoxicity control, dose response (AID 743416). It counts as functional.
Assay [18] is described as follows: blockers of bursicon-stimulated LGR2 cAMP reporter – cell-based, HEK293, CRE-luciferase reporter, cherry pick, set 2, dose response (AID 743343).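 Note: transfected cells were stimulated with diluted bursicon conditioned medium after compound addition.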 In kind it is functional. (In general: In a reporter assay the amount or activity of a reporter protein is the signal.)
Assay [19] can be described thus: blockade of melanocortin 4 receptor signaling – cell-based, plate reader, cherry pick, counter-screen for LGR2 antagonist project, dose response (AID 743444).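 Note: transfected HEK 293 cells stimulated with alpha-MSH peptide; potency of inhibitors of the alpha-MSH evoked signal.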 In kind it is functional. (In general: The purpose of a counterscreen is to sort out artefacts and off-target activity.)
Another assay concerns the target Cytochrome P450 2D6 (Homo sapiens, UniProt P10635).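 Note: CYP2D6 member of a cytochrome P450 panel assay.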

Activity calls are given as the source filed them. Bounds are passed on as bounds.

Chain of Cytochrome P450 2D6 (P10635 whole entry): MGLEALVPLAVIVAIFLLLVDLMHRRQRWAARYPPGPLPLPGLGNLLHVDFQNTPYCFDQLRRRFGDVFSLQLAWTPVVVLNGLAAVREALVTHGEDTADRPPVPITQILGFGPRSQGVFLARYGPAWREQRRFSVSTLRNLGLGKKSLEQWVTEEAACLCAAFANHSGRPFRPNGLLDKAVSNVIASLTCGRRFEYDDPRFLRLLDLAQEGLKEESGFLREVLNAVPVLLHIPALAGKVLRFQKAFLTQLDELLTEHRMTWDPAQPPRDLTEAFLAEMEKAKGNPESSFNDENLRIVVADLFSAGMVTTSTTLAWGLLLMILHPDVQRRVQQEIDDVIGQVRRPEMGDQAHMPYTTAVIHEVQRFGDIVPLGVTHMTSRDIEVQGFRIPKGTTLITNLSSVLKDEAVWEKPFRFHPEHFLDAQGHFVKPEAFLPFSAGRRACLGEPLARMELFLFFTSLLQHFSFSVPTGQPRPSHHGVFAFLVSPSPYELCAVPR

For `Cc1ccc(N=C(S)Nc2ccc(Cl)c(Cl)c2)c(OC(F)F)c1`, the AC50 with HeLa was 29.9 µM (active); in the assay on HEK293, 26.6 µM (active); in assay [1] it was 26.6 µM (active).

Turning to `C[C@H](c1ccccc1)N1C[C@H](COCc2ccccc2)Oc2cc(N3CC[C@@H](O)C3)ccc2S1(=O)=O`, the IC50 was > 69.5 µM (inactive) in assay [2] and 16 µM (inactive) in assay [3].

Take `C[C@@H]1CCCCO[C@@H](CN(C)S(=O)(=O)c2ccc(F)cc2)[C@@H](C)CN([C@@H](C)CO)C(=O)c2cc(NS(=O)(=O)c3ccc(F)cc3)ccc2O1`: the AC50 (with HEK293; in assay [1]) was 17.1 µM (active) in each case.

For the compound `CC1CCC(NC(=O)c2cccn2C)CC1` (stereo unspecified), the EC50 in [4] is > 67.6 µM (inactive).

Take `O=C(NCc1nc2ccccc2[nH]1)C1=C[C@H](c2ccc(Br)cc2)C[C@H](OCCCCO)O1`: the IC50 in [5] was 66.7 µM (inactive).

As to `OCc1nc2ccccc2n1CC(O)Cn1ccc2ccccc21` (stereo unspecified), the Ki on fMet-Leu-Phe receptor is > 66.7 µM (inactive).

With `O=C(SCC(O)C(O)CS)c1cccs1` (stereo unspecified), the values for the IC50 in assay [2] and in [3] were 3.76 µM (active) and 40.5 µM (inactive), respectively.

For `O=C1OC(=O)/C(=C\Nc2cnc3ccccc3c2)C=C1Br`, the IC50 in [6] was 17.4 µM (inactive); in assay [7] it was 12.1 µM (inactive).

With `O=C(Nc1ccc(F)cc1)c1coc(=O)c(Br)c1`, the IC50 was 8.8 µM (active) in assay [6] and 3.4 µM (active) in assay [7].

As for `CCOC(=O)N1CCC(Nc2c(Nc3ccc(F)cc3)c(=O)c2=O)CC1`, the IC50 in assay [8] is 7.98 µM (active); in assay [9], 83.3 µM (inactive); in [10], 4.36 µM (active); in assay [5] it was > 83.3 µM (inactive).

With `COCCCN1C(=O)C(O)=C(C(=O)c2ccco2)C1c1ccc(Br)cc1` (stereo unspecified), the Ki on fMet-Leu-Phe receptor was 14.7 µM (active).

For the compound `NNc1nc(-c2ccccc2)nc2sc3c(c12)CCCC3`, the EC50 (in [11]; in “cells”) was > 67.5 µM (inactive) in each case.

Take `COC(=O)[C@]12CCCCC=C1N(Cc1ccc(Cl)cc1Cl)C(=O)[C@H](CC(=O)NCc1cccc(C(F)(F)F)c1)C2`: the AC50 in [12] is > 30 µM (inactive).

On to `Cc1ccc(NC(=O)c2sc3ccccc3c2Cl)nc1`, for which the EC50 is 41.5 µM (not active) in assay [13]; 53.2 µM (not active) in assay [14]; 52 µM (not active) in [15]; > 67.5 µM (inactive) in assay [11]; > 67.5 µM (inactive) in “cells”. Also, the AC50 at Cytochrome P450 2C19 is 7.94 µM (inconclusive); in assay [16], 50.8 µM (active); in assay [17], > 52 µM (inactive); in [18], 2.52 µM (active); in assay [19] it was 3.36 µM (active); on Cytochrome P450 2D6, 3.16 µM (inconclusive).

Consider `CCS(=O)(=O)Nc1cc(-c2nc3cccnc3s2)ccc1C`, for which the EC50 in assay [4] is > 67.5 µM (inactive).
